“Also recorded” adds a separate entry of the source. Read-outs that look alike come from different tables or passages of the source. Where no end group is shown, it is not given here.
Experiments:
[1] = test system: primary neural cortical cultures; test: Peptide neurotoxicity, CellTiter-Blue viability assay; format: cell-based, Wistar rat; settings: for Neural viability, relative to non-insulted control: 100 µM; for Concentration at which neurotoxic impact was visible: tested 1, 10, 50, 100, 200 µM
Protocol: (§1) All animal experiments were conducted in accord with the permission of the Local Bioethics Committee. Primary cortical neurons were isolated from Wistar rat embryos at embryonic day 18.5 (E18.5). Pregnant females were euthanized in a CO2 chamber, and the embryos were immediately removed in order to microdissect the brains. The cortices were excised, transferred to Hank’s Balanced Salt Solution (HBSS, Gibco, Waltham, MA, USA), supplemented with a 1% penicillin/streptomycin mixture (Gibco, Waltham, MA, USA) and washed. Afterwards, the tissue was trypsinized (2.5% trypsin, Gibco, Waltham, MA, USA) for 10 min at 37 °C, and homogenized gently by re-suspension with a sterile tip of a pipette. The cell suspension was centrifuged in 300 rcf for 4 min and re-suspended in Neurobasal-A medium (Gibco, Waltham, MA, USA) supplemented to final concentration with 1 mM sodium pyruvate, 12.5 mM glucose 2% B27 (Gibco, Waltham, MA, USA), […] L-glutamine, […], a 1% penicillin/streptomycin mixture, and seeded in a 24-well plate poly-D-lysine (PDL)-coated (BioCoat, Corning, Tewksburry, MA, USA) in the number of 200,000 cells per well. The neural cultures were incubated in a CO2 chamber (5%, 95% air balance, 98% humidity, 37 °C) for 14 days and were used on culture day in vitro (DIV) 14–15.
The influence of all peptides on neural viability was assessed by exposing the cells to different peptide concentrations (1, 10, 50, 100, 200 µM) for 20 h at 37 °C in a 5% CO2 chamber. The assessments were performed in 24-well PDL-coated plates (BioCoat, Corning, Tewksbury, MA, USA) with a working volume of 500 µL/well. The respective peptide solutions were prepared in culture medium so that in all wells only 50 µL of the medium was exchanged, including control (untreated) samples.
Neural viability was assessed in CellTiter-Blue® (CTB) assay (Promega, cat #G8080, Madison, WI, USA) after 20 h long incubation of cells in standard Neurobasal medium after stressful conditions. The test was performed in 24-well PDL-coated plates (BioCoat, Corning, Tewksbury, MA, USA) and according to the manufacturer’s guideline, which included adding the solution to the neural culture well, followed by incubation for 1–4 h at 37 °C (5% CO2). The fluorescence intensity of the CTB reagent was measured spectrofluorimetrically (560ex/590em) and was proportional to the number of viable cells. The results were calculated as a percentage taking the respective control (non-insulted) measurement as 100% viability.
Each cell viability experiment was performed in at least three biologically independent experiments, in each of which neural cultures were obtained from one female rat. Each female originated from different breeding parents. In one experiment, the viability assessments for each condition were conducted in three plates, with three–four replicate wells per plate. For every plate, relative viability for one condition were averaged, and then used to calculate averaged results for all plates in an experiment. The final values were calculated from averaged results of independent experiments and shown as a mean ± standard deviation (SD), n = 3. The data were analyzed by a two-way ANOVA test with p-value < 0.05 values considered statistically significant.

[2] = test system: pre-insulted rat primary neural culture; test: Pro-viable effect of peptides in a multifactorial in vitro model of acute ischemic stroke, CellTiter-Blue; format: cell-based, Wistar rat; settings: 1 h, then 50 µM peptide 20 h; for Neuroprotection against excitotoxicity: 400 µM glutamic acid, 800 µM NMDA or 800 µM kainic acid
Protocol: as §1, with “14–15. […]” for “14–15.”
Neural viability was assessed in CellTiter-Blue® (CTB) assay (Promega, cat #G8080, Madison, WI, USA) after 20 h long incubation of cells in standard Neurobasal medium after stressful conditions. […] The fluorescence intensity of the CTB reagent was measured spectrofluorimetrically (560ex/590em) and was proportional to the number of viable cells. The results were calculated as a percentage taking the respective control (non-insulted) measurement as 100% viability. […]

[3] = test system: cell membrane; settings: previous reports; cited from earlier work
Description: Comparing the native Tat(49–57)-NH2 and PTD4, the latter appeared as a better-performing neuroprotectant in the AIS model. Mechanistically, this may indicate a possible correlation between neuroprotection and the structural and acid-base peptide properties.

**Q.** For C#CC(=O)N[C@@H](CCCNC(=N)N)C(=O)N[C@@H](CCCCN)C(=O)N[C@@H](CCCCN)C(=O)N[C@@H](CCCNC(=N)N)C(=O)N[C@@H](CCCNC(=N)N)C(=O)N[C@@H](CCC(N)=O)C(=O)N[C@@H](CCCNC(=N)N)C(=O)N[C@@H](CCCNC(=N)N)C(=O)N[C@@H](CCCNC(=N)N)C(N)=O [Prop-Tat], which “Neural viability, relative to non-insulted control” value [1] is on record?
**A.** < 10%

**Q.** And the “Concentration at which neurotoxic impact was visible” value ([1]; 20 h exposure, CTB assay)?
**A.** 1000 nM

**Q.** With CC[C@H](C)[C@H](NC(=O)[C@H](CCCCN)NC(=O)[C@H](CCCCN)NC(=O)[C@H](C)NC(=O)[C@H](CC(C)C)NC(=O)[C@H](C)NC(=O)[C@H](C)NC(=O)[C@H](CC(C)C)NC(=O)[C@H](C)NC(=O)[C@H](CCCCN)NC(=O)[C@H](CC(C)C)NC(=O)[C@H](CC(N)=O)NC(=O)[C@@H](NC(=O)[C@H](CCCCN)NC(=O)CNC(=O)[C@H](CC(C)C)NC(=O)[C@H](CC(C)C)NC(=O)[C@H](Cc1ccc(O)cc1)NC(=O)CNC(=O)[C@H](C)N)[C@@H](C)CC)C(=O)N[C@@H](CC(C)C)C(N)=O [TP10, reference compound] as the compound, how does the “Neural viability, relative to non-insulted control” value [1] read?
**A.** < 10%

**Q.** And the “Neurotoxicity ranking among the peptides tested” value ([1]; 1-200 µM, 20 h exposure, CTB assay)?
**A.** highest toxicity

**Q.** What about the “Concentration at which neurotoxic impact was visible” value ([1]; 20 h exposure, CTB assay) of the same compound?
**A.** 1000 nM

**Q.** Which “Neurotoxicity at higher concentrations” value ([1]; >100 µM, 20 h exposure, CTB assay, n = 3) does the source give for “RKKR^52RQRRR^57-amide [Tat(49–57)-NH2, reference compound]” here?
**A.** most toxic impact; also recorded: significantly neurotoxic

**Q.** And the Neuroprotection against excitotoxicity [2]?
**A.** significant neuroprotection

**Q.** Which “Efficiency of peptide translocation across the cell membrane compared to Tat(49–57)-NH2” value [3] does the source give for “YARAAARQARA-NH2 [PTD4, less basic Ala-substituted analogue of Tat(49–57)-NH2, cell-penetrating peptide]” here?
**A.** almost thirty times higher

**Q.** What about the Highest non-toxic concentration [1] of the same compound?
**A.** 50 µM

**Q.** And the “Neurotoxicity at higher concentrations” value [1]?
**A.** significantly neurotoxic

**Q.** And the “Neurotoxicity at low concentrations” value [1]?
**A.** negligible

**Q.** What about the “Neurotoxicity ranking among the peptides tested” value [1] of the same compound?
**A.** lowest neurotoxicity

**Q.** And the Neuroprotection against excitotoxicity [2]?
**A.** significant neuroprotection

**Q.** And the “Pro-viable activity against acidosis” value ([2]; acidosis pH 6.35, 200 mM sodium lactate)?
**A.** displayed pro-viable activity

From article PMC8200211, “PTD4 Peptide Increases Neural Viability in an In Vitro Model of Acute Ischemic Stroke” (International Journal of Molecular Sciences, 2021)
